This is an account of results in patent publication US9840481B2, “Allosteric modulators of nicotinic acetylcholine receptors” (MERCK SHARP & DOHME CORP., priority 2016, dated 2017).

SMILES strings stand for the structures. Read-outs that look alike come from different tables or passages of the source.

The target in this assay is T1, human α7 nAChR stably expressed in a HEK cell line (with human RIC-3) (Homo sapiens, UniProt P36544).
T1 construct: PrecisION hnAChR α7/RIC-3
Kind of assay: Automated patch-clamp electrophysiology functional assay (Assay A), IonFlux HT, whole-cell population patch. In kind it is cell-based. As to the method: The α7 nAChR positive allosteric modulator (PAM) activity of the present compounds may be tested using assays known in the art. The α7 nAChR PAMs described herein have activities in an automated patch-clamp electrophysiology functional assay as described in the examples. The assay was performed using the IonFlux HT in a whole-cell, population patch configuration. See Golden et al. Assay Drug Dev. Technol. (2011) 9:608-619. The compounds were assessed for their ability to modulate the function of the human α7 nAChR stably expressed in a HEK cell line both in the presence, and in the absence of the natural α7 agonist acetylcholine. By performing a series of such measurements at different concentrations, the effective concentration of the α7 nAChR PAMs (EC50) was determined. See Spencer et al. Assay Drug Dev. Technol. (2012) 10:313-324.
Direct activation of α7 (agonism), and potentiation of 5 acetylcholine-evoked α7 currents was determined as follows:
Automated Patch-Clamp Electrophysiology Functional Assay (Assay A)
Automated patch-clamp electrophysiology was performed using the IonFlux HT (Fluxion Biosciences Inc., San Francisco, Calif.) in the whole-cell, population patch configuration. Test compounds were assessed for their ability to modulate the function of the α7 nicotinic acetylcholine receptor both in the presence, and in the absence of the natural α7 agonist acetylcholine. A HEK cell line stably expressing both human RIC-3 and human α7 (PrecisION hnAChR α7/RIC-3, Eurofins Pharma, St. Charles, Mo.) was cultured in 175 cm^2 triple-layer tissue culture flasks to no more than 90% confluency in DMEM/F-12 growth media supplemented with 10% heat-inactivated fetal bovine serum, 1% non-essential amino acids, 0.625 μg/mL Puromycin, and 400 μg/mL Geneticin. Immediately prior to assay, cells were detached by first aspirating growth media, rinsing with Dulbecco's phosphate buffered saline, and then adding 10 mL of Accutase (Innovative Cell Technologies, San Diego, Calif.) to the flask and then incubating at 37° C. for 5 minutes. Detached cells were then recovered by the addition of 40 mL of CHO-serum-free media supplemented with 25 mM HEPES, and rocked gently in a 50 mL conical tube for 20 minutes prior to patch-clamp assay. After recovery, cells were pelleted by centrifugation at 1,000 RPM for 1 minute in a compact bench top centrifuge; recovery media was aspirated and cells were resuspended in external recording solution (150 mM NaCl, 5 mM KCl, 2 mM CaCl2, 1 mM MgCl2, 10 mM HEPES, 12 mM dextrose) to a density of 5.0×10^6 cells/mL. The cell suspension was added to the cell inlet wells on an IonFlux HT population patch plate which had previously been rinsed and primed with deionized H2O. Test compounds were serially diluted in DMSO and then resuspended to the final test concentration in external recording solution, with, or without […] acetylcholine added to the external recording solution; test compounds were then transferred to the IonFlux HT population patch plate. Internal recording solution (110 mM TrisPO4, 28 mM TrisBase, 0.1 mM CaCl2, 2 mM MgCl2, 11 mM EGTA, 4 mM MgATP) was added to the internal recording solution inlet wells on the IonFlux HT patch plate previously loaded with cells and test compounds, and the plate loaded into the IonFlux HT instrument. A protocol was executed on the IonFlux HT to trap the cells, break into the cells, and establish the whole-cell recording configuration; cells were voltage-clamped at a holding potential of −60 mV for the duration of the experiment, all experiments were conducted at room temperature, and the IonFlux HT injection pressure was 8 psi for solution applications. Upon establishing the whole-cell configuration, external recording solution was perfused into the recording chambers for 120 seconds and then 40 μM acetylcholine was applied for 1 second and immediately washed off with external recording solution for 60 seconds. […]

The mark [1] stands for this setting: automated patch-clamp electrophysiology functional assay (Assay A), potency class by EC50, read-out: α7 nAChR Potency.
Setting [2] is: electrophysiology EC50, HEK cells expressing human α7/RIC-3, 40 μM acetylcholine, holding potential −60 mV, room temperature, read-out: α7 nAChR EC50.

T1 sequence (P36544 23-502): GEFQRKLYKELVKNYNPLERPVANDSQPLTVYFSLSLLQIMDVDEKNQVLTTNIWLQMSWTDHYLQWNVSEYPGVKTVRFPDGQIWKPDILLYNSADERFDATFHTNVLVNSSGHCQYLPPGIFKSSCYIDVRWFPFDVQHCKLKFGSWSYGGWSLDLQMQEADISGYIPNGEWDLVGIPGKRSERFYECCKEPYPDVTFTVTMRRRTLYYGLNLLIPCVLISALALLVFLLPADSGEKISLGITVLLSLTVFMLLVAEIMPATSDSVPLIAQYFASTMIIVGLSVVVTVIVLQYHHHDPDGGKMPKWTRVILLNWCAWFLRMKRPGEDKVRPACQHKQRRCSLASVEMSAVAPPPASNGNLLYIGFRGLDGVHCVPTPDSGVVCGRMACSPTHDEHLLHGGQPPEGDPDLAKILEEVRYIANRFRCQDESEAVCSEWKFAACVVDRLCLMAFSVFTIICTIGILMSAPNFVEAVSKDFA

As to `CC1(C)[C@H](c2ccc(S(N)(=O)=O)cc2)[C@H]1c1nc(-c2c(F)cccc2F)no1` [Example A11], the EC50 was 500 to 5000 nM under setting [1] and 960 nM under setting [2].
For `NS(=O)(=O)c1ccc([C@@H]2[C@@H](c3nc(-c4cccc(F)c4)no3)C2(Cl)Cl)cc1` (relative stereo) [Example 36, 4-{trans-2,2-Dichloro-3-[3-(3-fluorophenyl)-1,2,4-oxadiazol-5-yl]cyclopropyl}benzenesulfonamide], in that order: 100 to 500 nM and 470 nM.
For `Cn1cc([C@H]2[C@H](c3ccc(S(N)(=O)=O)cc3)C2(C)C)nc1-c1cccc(F)c1` [Example 35, 4-{(1S,3S)-3-[2-(3-Fluorophenyl)-1-methyl-1H-imidazol-4-yl]-2,2-dimethylcyclopropyl}benzenesulfonamide], in that order: 500 to 5000 nM and 4400 nM.
For `CC(C)c1nsc(C2CC2c2ccc(S(N)(=O)=O)cc2)n1` (single isomer, unassigned; enantiomer b) [Example 18, 4-{trans-2-[3-(Propan-2-yl)-1,2,4-thiadiazol-5-yl]cyclopropyl}benzenesulfonamide, enantiomer B], the EC50 reads like this: under setting [1], 100 to 500 nM; under setting [2], 380 nM.
For `CC1(C)[C@@H](c2ccc(S(N)(=O)=O)cc2)[C@@H]1c1noc(C2CN(C(=O)C3CC3)C2)n1` [Example I23], the EC50 under setting [1] fell in the range of 500 to 5000 nM.
As for `CC1(C)[C@@H](c2ccc(S(N)(=O)=O)cc2)[C@@H]1c1noc(C2CC(O)C2)n1` (some centres unmarked) [Example I30], the EC50 by setting is: under setting [1], 500 to 5000 nM; under setting [2], 3800 nM.
For `NS(=O)(=O)c1ccc([C@@H]2C[C@H]2c2nc(-c3ccccc3C(F)(F)F)no2)cc1` [Example C6], the EC50 under setting [1] was 500 to 5000 nM.
For the compound `CC(C)c1noc([C@@H]2C[C@H]2c2ccc(S(N)(=O)=O)cc2)n1` [Example D11], the EC50 by setting is: under setting [1], 100 to 500 nM; under setting [2], 430 nM.
As for `CC1(C)[C@@H](c2ccc(S(N)(=O)=O)cc2)[C@@H]1c1noc(Cc2ccc(F)cc2F)n1` [Example I1], under setting [1], the EC50 fell in the range of 100 to 500 nM.
Turning to `CC(C)(C)c1coc([C@H]2[C@H](c3ccc(S(N)(=O)=O)cc3)C2(C)C)n1` [Example K7], the EC50 was 500 to 5000 nM under setting [1] and 620 nM under setting [2].
For `CC1(C)[C@@H](c2ccc(S(N)(=O)=O)cc2)[C@@H]1c1nnc(-c2cc(F)ccc2C(F)(F)F)o1` [Example G6] the same measures were 500 to 5000 nM and 1100 nM.
Regarding `NS(=O)(=O)c1ccc([C@@H]2C[C@H]2c2nc(-c3cc(F)ccc3F)no2)cc1` [Example C16], the EC50 reads like this: under setting [1], 100 to 500 nM; under setting [2], 160 nM.
As to `NS(=O)(=O)c1ccc([C@@H]2C[C@H]2c2nc(C3CCCC3)co2)cc1` [Example K18], the EC50 under setting [1] is 100 to 500 nM.
The same measure, in the same setting: as for `CC1(C)[C@@H](c2ccc(S(N)(=O)=O)cc2)[C@@H]1c1nc(-c2ccc(F)cc2F)no1` [Example C12], the figure is 500 to 5000 nM.
In the case of `NS(=O)(=O)c1ccc([C@H]2[C@H](c3ncc(C4CCCC4)o3)C2(F)F)cc1` [Example K13], the EC50 was 100 to 500 nM under setting [1] and 390 nM under setting [2].
Take `NS(=O)(=O)c1ccc([C@@H]2C[C@H]2c2nc(-c3cnccc3C(F)(F)F)no2)cc1` [Example D22]: under setting [1], the EC50 was in the range of 500 to 5000 nM.
As to `CC1(C)[C@@H](c2ccc(S(N)(=O)=O)cc2)[C@@H]1c1noc(-c2c(F)cc(F)cc2F)n1` [Example H3], the EC50 was 100 to 500 nM under setting [1] and 130 nM under setting [2].
As to `NS(=O)(=O)c1ccc(C2C(c3ncc(-c4ccccc4)o3)C2(F)F)cc1` (racemic) [Example M1], under setting [1], the EC50 lay within 500 to 5000 nM.
For the compound `CC1(C)[C@@H](c2ccc(S(N)(=O)=O)cc2)[C@@H]1c1nc(C2CCCCC2)no1` [Example D3], the EC50 reads like this: under setting [1], 100 to 500 nM; under setting [2], 150 nM.
For `CC1(C)[C@@H](c2ccc(S(N)(=O)=O)cc2)[C@@H]1c1nc(-c2ccccn2)no1` [Example D4], in that order: 5000 to 50000 nM and 6800 nM.
For `CC1(C)[C@@H](c2ccc(S(N)(=O)=O)cc2)[C@@H]1c1nnc(CC2CC2)o1` [Example G11], in that order: 500 to 5000 nM and 4500 nM.
Regarding `CC1(C)[C@@H](c2ccc(S(N)(=O)=O)cc2)[C@@H]1c1nc(-c2ccc(C(F)(F)F)nc2)no1` [Example D29], the EC50 under setting [1] lay within 500 to 5000 nM.
Consider `CC1(C)[C@@H](c2ccc(S(N)(=O)=O)cc2)[C@@H]1c1noc(C2CCc3cc(F)ccc32)n1` (some centres unmarked) [Example I3], for which the EC50 is not above 100 nM under setting [1] and 96 nM under setting [2].
`NS(=O)(=O)c1ccc([C@@H]2C[C@H]2c2ncc(-c3cccc(F)c3)s2)cc1` [Example K20]: under setting [1], the EC50 lay within 100 to 500 nM.
On the same count and under the same terms, then `CC1(C)[C@H](c2ccc(S(N)(=O)=O)cc2)[C@H]1c1nnc(-c2c(F)cccc2F)o1` [Example F1], with 500 to 5000 nM.
Regarding `CC1(C)[C@@H](c2ccc(S(N)(=O)=O)cc2)[C@@H]1c1nnc(C2CCCC2)o1` [Example G10], the EC50 reads like this: under setting [1], 500 to 5000 nM; under setting [2], 630 nM.
For `CC1C(c2ccc(S(N)(=O)=O)cc2)C1c1nc(-c2ccccc2)no1` (single isomer, unassigned) [Example M2] the same measures were 500 to 5000 nM and 1700 nM.
For `NS(=O)(=O)c1ccc([C@@H]2C[C@H]2c2noc(C3(C(F)(F)F)CC3)n2)cc1` [Example I35] the same measures were 500 to 5000 nM and 690 nM.
As for `CC1(C)[C@@H](c2ccc(S(N)(=O)=O)cc2)[C@@H]1c1nnc(-c2cccnc2C2CC2)o1` [Example G12], the EC50 under setting [1] lay within 500 to 5000 nM.
Consider `CC1(C)[C@H](c2ccc(S(N)(=O)=O)cc2)[C@H]1c1noc(N2CCCCC2)n1` [Example L20], for which the EC50 is 500 to 5000 nM under setting [1] and 1300 nM under setting [2].
For `NS(=O)(=O)c1ccc([C@@H]2C[C@H]2c2nc(-c3cccnc3C3CC3)no2)cc1` [Example D24] the same measures were 100 to 500 nM and 230 nM.
As to `CC1(C)[C@@H](c2ccc(S(N)(=O)=O)cc2)[C@@H]1c1noc(-c2ccc(OC(F)(F)F)cc2)n1` [Example H13], the EC50 under setting [1] fell in the range of 500 to 5000 nM.
In the case of `CC1(C)[C@@H](c2ccc(S(N)(=O)=O)cc2)[C@@H]1c1noc(-c2cc3sccc3[nH]2)n1` [Example I22], the EC50 runs as follows: under setting [1], 5000 to 50000 nM; under setting [2], 5400 nM.
In the case of `NS(=O)(=O)c1ccc([C@@H]2C[C@H]2c2csc(C3CCCC3)n2)cc1` [Example L14], under setting [1], the EC50 was 500 to 5000 nM.
`CC(C)(C)c1coc([C@@H]2[C@@H](c3ccc(S(N)(=O)=O)cc3)C2(C)C)n1` [Example J4]: the EC50 is 500 to 5000 nM under setting [1] and 3200 nM under setting [2].
`NS(=O)(=O)c1ccc([C@@H]2C[C@H]2c2nc(-c3cncc(F)c3)no2)cc1` [Example D12]: the EC50 was 500 to 5000 nM under setting [1] and 800 nM under setting [2].
For `CC1(C)[C@@H](c2ccc(S(N)(=O)=O)cc2)[C@@H]1c1nc(C2(C(F)(F)F)CC2)no1` [Example D33] the same measures were 100 to 500 nM and 210 nM.
For `CC1(C)C(c2ccc(OS(N)(=O)=O)cc2)C1c1nc(-c2ccccc2)no1` (stereo not drawn) [Example 30, 4-[trans-2,2-Dimethyl-3-(3-phenyl-1,2,4-oxadiazol-5-yl)cyclopropyl]phenyl sulfamate] the same measures were 500 to 5000 nM and 1400 nM.
For `NS(=O)(=O)c1ccc([C@@H]2[C@@H](c3nc(C4CCC4)no3)C2(F)F)cc1` [Example B18], in that order: 500 to 5000 nM and 1200 nM.
